Where “and” joins values, the source holds several entries; their conditions need not be identical. Identical values can stand only once.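 Cultured in 96-well plates, cells were exposed to test compound for 48 hours across five concentrations. GI50 = concentration required for 50% inhibition of growth. Definition used: TGI = concentration required for complete inhibition of growth.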
Experiments:
Test in all cases: NCI anticancer screen, dose series, 48 h
COLO 205 colon = system: COLO 205 colon
NCI-H522 lung = system: NCI-H522 lung
KM12 colon = system: KM12 colon
OVCAR-5 ovarian = system: OVCAR-5 ovarian
SK-MEL-5 melanoma = system: SK-MEL-5 melanoma
MOLT-4 leukemia = system: MOLT-4 leukemia
SK-MEL-28 melanoma = system: SK-MEL-28 melanoma
MCF7 breast = system: MCF7 breast
EKVX NSCLC = system: EKVX NSCLC
SNB-19 CNS = system: SNB-19 CNS

CCn1c(-c2nonc2N)nc2cnc(Oc3cccc(NC(=O)c4ccc(N(C)C)cc4)c3)cc21
GI50 (COLO 205 colon): > 13.5 µM | TGI (COLO 205 colon): > 25 µM | GI50 (NCI-H522 lung): > 13.8 µM | TGI (NCI-H522 lung): > 25 µM | GI50 (KM12 colon): > 25 µM | TGI (KM12 colon): > 25 µM | GI50 (OVCAR-5 ovarian): > 25 µM | TGI (OVCAR-5 ovarian): > 25 µM | GI50 (SK-MEL-5 melanoma): > 25 µM | TGI (SK-MEL-5 melanoma): > 25 µM | GI50 (MOLT-4 leukemia): 13.6 µM | TGI (MOLT-4 leukemia): > 25 µM | GI50 (SK-MEL-28 melanoma): > 25 µM | TGI (SK-MEL-28 melanoma): > 25 µM | GI50 (MCF7 breast): > 25 µM | TGI (MCF7 breast): > 25 µM | GI50 (EKVX NSCLC): 2.87 µM | TGI (EKVX NSCLC): > 25 µM | GI50 (SNB-19 CNS): > 25 µM | TGI (SNB-19 CNS): > 25 µM

CC(O)[C@H](NC(=O)N[C@@H](CC(N)=O)c1nc(N2CCNCC2)no1)C(=O)O (some centres undefined)
GI50 (COLO 205 colon): > 100 µM | TGI (COLO 205 colon): > 100 µM | GI50 (NCI-H522 lung): > 100 µM | TGI (NCI-H522 lung): > 100 µM | GI50 (KM12 colon): > 100 µM | TGI (KM12 colon): > 100 µM | GI50 (OVCAR-5 ovarian): > 100 µM | TGI (OVCAR-5 ovarian): > 100 µM | GI50 (SK-MEL-5 melanoma): > 100 µM | TGI (SK-MEL-5 melanoma): > 100 µM | GI50 (MOLT-4 leukemia): > 100 µM | TGI (MOLT-4 leukemia): > 100 µM | GI50 (SK-MEL-28 melanoma): > 100 µM | TGI (SK-MEL-28 melanoma): > 100 µM | GI50 (MCF7 breast): > 100 µM | TGI (MCF7 breast): > 100 µM | GI50 (EKVX NSCLC): > 100 µM | TGI (EKVX NSCLC): > 100 µM | GI50 (SNB-19 CNS): > 100 µM | TGI (SNB-19 CNS): > 100 µM

O=C(O)CCCCC1CCSS1 (centres undefined)
TGI (COLO 205 colon): > 100 µM | TGI (NCI-H522 lung): > 100 µM | TGI (KM12 colon): > 100 µM | TGI (OVCAR-5 ovarian): > 100 µM | TGI (SK-MEL-5 melanoma): > 100 µM | TGI (MOLT-4 leukemia): > 100 µM | TGI (SK-MEL-28 melanoma): > 100 µM | TGI (MCF7 breast): > 100 µM | TGI (EKVX NSCLC): > 100 µM | TGI (SNB-19 CNS): > 100 µM

O=CN1N=C(c2cccc(Nc3ccnc4cc(Cl)ccc34)c2)CC1c1ccc(Cl)cc1 (centres undefined)
GI50 (COLO 205 colon): 1.39 µM | TGI (COLO 205 colon): 6.67 µM | GI50 (NCI-H522 lung): 0.798 µM | TGI (NCI-H522 lung): 70.1 µM | GI50 (KM12 colon): 0.591 µM | TGI (KM12 colon): > 100 µM | GI50 (OVCAR-5 ovarian): > 100 µM | TGI (OVCAR-5 ovarian): > 100 µM | GI50 (SK-MEL-5 melanoma): 1.86 µM | TGI (SK-MEL-5 melanoma): 10.6 µM | GI50 (MOLT-4 leukemia): 1.92 µM | TGI (MOLT-4 leukemia): 80.3 µM | GI50 (SK-MEL-28 melanoma): 5.63 µM | TGI (SK-MEL-28 melanoma): > 100 µM | GI50 (MCF7 breast): 0.81 µM | TGI (MCF7 breast): > 100 µM | GI50 (EKVX NSCLC): > 100 µM | TGI (EKVX NSCLC): > 100 µM | GI50 (SNB-19 CNS): 3.48 µM | TGI (SNB-19 CNS): > 100 µM

NC1=NCN(C2OC(CO)C(O)C2O)C(=O)N1 (centres undefined)
TGI (COLO 205 colon): 584 µM | TGI (NCI-H522 lung): 144 µM | TGI (KM12 colon): 674 µM | TGI (OVCAR-5 ovarian): 2150 µM | TGI (SK-MEL-5 melanoma): 335 µM | TGI (MOLT-4 leukemia): 152 µM | TGI (SK-MEL-28 melanoma): 1660 µM | TGI (MCF7 breast): 328 µM | TGI (EKVX NSCLC): 1870 µM | TGI (SNB-19 CNS): 2220 µM

CC(=O)OCC1OC(n2c3c(cc(C#N)c2=S)CCCC3)C(OC(C)=O)C(OC(C)=O)C1OC(C)=O (centres undefined)
TGI (COLO 205 colon): > 100 µM | TGI (NCI-H522 lung): > 100 µM and 98.7 µM | GI50 (KM12 colon): 31.7 µM and > 100 µM | TGI (KM12 colon): > 100 µM | TGI (OVCAR-5 ovarian): > 100 µM | TGI (SK-MEL-5 melanoma): > 100 µM | GI50 (MOLT-4 leukemia): 31.9 µM and > 100 µM | TGI (MOLT-4 leukemia): > 100 µM | TGI (SK-MEL-28 melanoma): > 100 µM | GI50 (MCF7 breast): 48.4 µM and > 100 µM | TGI (MCF7 breast): > 100 µM | TGI (EKVX NSCLC): > 100 µM | GI50 (SNB-19 CNS): > 100 µM and 21.5 µM | TGI (SNB-19 CNS): > 100 µM and 54.4 µM

CCOc1ccc2cc(-c3nn(CC4CCNCC4)c4ncnc(N)c34)ccc2c1
GI50 (COLO 205 colon): 12.2 µM | TGI (COLO 205 colon): 27 µM | GI50 (NCI-H522 lung): 15.8 µM | TGI (NCI-H522 lung): 30.4 µM | GI50 (KM12 colon): 1.64 µM | TGI (KM12 colon): 13.7 µM | GI50 (OVCAR-5 ovarian): 14.9 µM | TGI (OVCAR-5 ovarian): 34.5 µM | GI50 (SK-MEL-5 melanoma): 16.4 µM | TGI (SK-MEL-5 melanoma): 29.9 µM | GI50 (MOLT-4 leukemia): 4.73 µM | TGI (MOLT-4 leukemia): 19.8 µM | GI50 (SK-MEL-28 melanoma): 16.1 µM | TGI (SK-MEL-28 melanoma): 30.2 µM | GI50 (MCF7 breast): 11.2 µM | TGI (MCF7 breast): 24.8 µM | GI50 (EKVX NSCLC): 22.5 µM | TGI (EKVX NSCLC): > 100 µM | GI50 (SNB-19 CNS): 16.7 µM | TGI (SNB-19 CNS): 34.5 µM
